This is an account of results in patent publication US20120094995A1, “2-AZA-BICYCLO[2.2.1]HEPTANE COMPOUNDS AND USES THEREOF” (ASTRAZENECA AB, priority 2009, published 2012).

Where only a bound is given, the exact number is not on record here.

The first experiment deals with T1, human GlyT1b (Homo sapiens, UniProt P48067).
T1 construct: expressed in transfected cells
T1 sequence (P48067 1-652 isoform P48067-3): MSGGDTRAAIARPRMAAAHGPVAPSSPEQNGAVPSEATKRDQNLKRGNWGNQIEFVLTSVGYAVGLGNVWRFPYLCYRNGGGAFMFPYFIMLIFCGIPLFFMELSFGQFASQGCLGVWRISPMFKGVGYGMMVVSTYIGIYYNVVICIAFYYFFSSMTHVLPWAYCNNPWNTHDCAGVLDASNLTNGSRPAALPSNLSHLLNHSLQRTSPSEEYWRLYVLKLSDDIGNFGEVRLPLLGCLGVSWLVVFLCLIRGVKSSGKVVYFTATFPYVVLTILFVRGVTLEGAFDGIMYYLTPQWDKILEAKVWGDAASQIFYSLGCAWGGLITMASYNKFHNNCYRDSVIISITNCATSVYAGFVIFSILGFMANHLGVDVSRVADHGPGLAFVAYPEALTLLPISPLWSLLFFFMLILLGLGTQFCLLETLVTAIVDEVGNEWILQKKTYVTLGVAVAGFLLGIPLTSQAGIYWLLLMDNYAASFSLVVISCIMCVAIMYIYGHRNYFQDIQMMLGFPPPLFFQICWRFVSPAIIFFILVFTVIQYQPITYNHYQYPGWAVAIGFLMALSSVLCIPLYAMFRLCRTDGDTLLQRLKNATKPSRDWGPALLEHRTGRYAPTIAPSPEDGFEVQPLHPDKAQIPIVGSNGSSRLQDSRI
In words: [3H] Glycine Uptake Assay (SPA) in recombinant hGlyT1b-CHO cells. The class given is cell-based. To be noted: Table 1. As to the method: A. [3H] Glycine Uptake Assay
Preparation of recombinant human GlyT1b-CHO cells (hGlyT1b-CHO). The human GlyT1b CDS (GC002087, NM_006934) was cloned downstream of a CMV promoter in a bicistronic expression vector containing a hygromycin B resistance gene. CHO-K1 cells (ATCC) were transfected with the recombinant vector containing GlyT1b using Lipofectamine 2000 (Invitrogen) and cultured in Ham's/F12 media supplemented with 10% fetal bovine serum, 2 mM L-glutamine at 37° C., 5% CO2, 90% humidity. Twenty-four hours after transfection, cells were diluted and switched to media containing 0.5 mg/ml hygromycin B. Antibiotic resistant cells were obtained after 21 days of culture in the presence of hygromycin B. Clonal stable cell lines were isolated by FACS single cell deposition into 96-well plates.
Cells used were Recombinant hGlyT1b/CHO. These cells were cultured in cell culture medium (Ham's/F12 (Modified) (Mediatech, 10-080-CM), containing 10% FBS, 2 mM L-glutamine (Invitrogen 25030-149) and 0.5 mg/mL hygromycin B (Invitrogen, 10687-010)) in 175 cm^2 flasks until near confluence before use in the assay.
Cell medium in a cell culture flask containing near confluent cells was removed and 5 mL of cell stripper was added to submerge all cells on the surface of the culture flask. Cell stripper was removed immediately and the flask incubated in a 37° C. incubator for ˜5 min. Cells were shaken loose and suspended in 5 mL of PBS. After splitting cells to initiate a new flask(s), the cells remaining were collected by centrifugation, counted, and resuspended in assay buffer to a density of ˜2 million/mL. The cell suspension was kept at room temperature before use. The assays buffer was 10 mM HEPES, pH 7.4, containing 150 mM NaCl, 5 mM KCl, 1.5 mM CaCl2, 1.5 mM MgCl2, 0.45 mg/mL L-alanine (added fresh), and 1.8 mg/mL D-glucose (added fresh).
WGA PTV beads were suspended in assay buffer (2 mg/ml) containing 60 nM [^3H]Glycine (PerkinElmer (NET-004, [2-^3H]Glycine, 53.3 Ci/mmol, 1 mCi/mL)) and 20 μM unlabeled glycine and the suspension was kept at room temperature before assay.
To the wells of an OptiPlate, 2 μl DMSO containing a test compound was spotted. This was followed by addition of 98 μl of cell suspension (˜1 million/ml final). After incubating cells with compound for ˜15 min, 100 μl of the SPA (200 μg/well final) and isotope mixture (30 nM isotope with 10 μM cold glycine, final) was added to initiate the glycine uptake. At 2 h, the plate was read on a TopCount to quantify SPA counts.
For orientation: IC50 means the concentration at which inhibition is half-maximal. Regarding `CN1C2CCC1(C(NC(=O)c1ccnc(Cl)c1Cl)c1ccccc1)CC2` (single isomer, unassigned) [Example 15, (R*)-2,3-dichloro-N-((7-methyl-7-azabicyclo[2.2.1]heptan-1-yl)(phenyl)methyl)isonicotinamide], the IC50 was determined as 210 nM.

Take `CN1C2CCC1([C@H](NC(=O)c1ccc(Cl)cc1Cl)c1ccccc1)CC2` (single isomer, unassigned) [Example 14, (R*)-2,4-dichloro-N((7-methy1-7-azabicyclo[2.2.1]heptan-1-yl)(phenyl)methyl)benzamide]: the IC50 stood at 305 nM.

`CSc1ncccc1C(=O)NC(c1ccccc1)C12CCC(CC1)N2C` (single isomer, unassigned) [Example 2, (R*)—N-((7-methyl-7-azabicyclo[2.2.1]heptan-1-y)(phenyl)methyl)-2-(methylthio)nicotinamide]: the IC50 came to 168 nM.

As to `COc1cccc(OC)c1C(=O)NC(c1ccccc1)C12CCC(CC1)N2C` (stereo not shown) [Example 11, 2,6-dimethoxy-N-((7-methyl-7-azabicyclo[2.2.1]heptan-1-yl)(phenyl)methyl)benzamide], the IC50 stood at 349 nM.

On to `CSc1ncccc1C(=O)NC(c1ccccc1)C12CCC(CC1)N2C` (stereo not shown) [Example 10, N-((7-methyl-7-azabicyclo[2.2.1]heptan-1-yl)(phenyl)methyl)-2-(methylthio)nicotinamide], for which the IC50 worked out at 145 nM.

Turning to `CN1C2CCC1(C(NC(=O)c1cccc(C(F)(F)F)c1Cl)c1ccccc1)CC2` (stereo not shown) [Example 17, 2-chloro-N-((7-methyl-7-azabicyclo[2.2.1]heptan-1-yl)(phenyl)methyl)-3-(trifluoromethyl)benzamide], the IC50 is 17.9 nM.

The experiment is the same for the next values; noted with them: Table 2, unit from table title.
Take `Cc1cccc(C)c1C(=O)N[C@H](c1ccccc1)C12CCC(CC1)N2C[C@H]1CCCN1` [Example 80]: the IC50 came to 313 nM.

For the compound `Cc1ccc(F)cc1C(=O)NC(c1ccccc1)C12CCC(CC1)N2C` (single isomer, unassigned) [Example 64], the IC50 was determined as 125 nM.

As for `COCCCN1C2CCC1(C(NC(=O)c1cccnc1SC)c1ccccc1)CC2` (stereo not shown) [Example 55], the IC50 was 310 nM.

With `CC(C)N1C2CCC1(C(NC(=O)c1c(Cl)cncc1Cl)c1ccccc1)CC2` (single isomer, unassigned) [Example 54], the IC50 is 100 nM.

As for `CSc1ncccc1C(=O)N[C@H](c1ccccc1)C12CCC(CC1)N2C1CC1` [Example 57], the IC50 was found to be 45 nM.

For the compound `CCCOc1ccc(C(NC(=O)c2c(C)cccc2C)C23CCC(CC2)N3C)cc1` (stereo not shown) [Example 100], the IC50 amounted to 223 nM.

Take `Cc1cccc(C)c1C(=O)N[C@H](c1ccccc1)C12CCC(CC1)N2Cc1ccccn1` [Example 49]: the IC50 is 155 nM.

`CSc1ncccc1C(=O)NC(c1ccncc1)C12CCC(CC1)N2C1CCC1` (single isomer, unassigned) [Example 101]: the IC50 stood at 160 nM.

As for `Cc1cccc(C)c1C(=O)N[C@H](c1ccccc1)C12CCC(CC1)N2CCN1CCOCC1` [Example 71], the concentration for half-maximal inhibition (IC50) is less than 2 nM.

As for `Cc1cccc(C)c1C(=O)N[C@H](c1ccccc1)C12CCC(CC1)N2Cc1ccccc1` [Example 25], the IC50 was found to be 174 nM.

Regarding `Cc1cccc(C(NC(=O)c2c(C)cccc2C)C23CCC(CC2)N3C)c1` (stereo not shown) [Example 84], the IC50 was found to be 26 nM.

In the case of `Cc1cc(F)cc(C)c1C(=O)NC(c1ccccc1)C12CCC(CC1)N2C` (stereo not shown) [Example 82], the IC50 is 4 nM.

As to `CCCOC(=O)c1ccc(C(NC(=O)c2c(C)cccc2C)C23CCC(CC2)N3C)cc1` (stereo not shown) [Example 98], the IC50 is 39 nM.

Turning to `Cc1cccc(C)c1C(=O)N[C@H](c1ccccc1)C12CCC(CC1)N2CCN1CCOC1=O` [Example 70], the IC50 was 3 nM.

On to `Cc1cccc(C)c1C(=O)NC(c1cccnc1)C12CCC(CC1)N2C` (single isomer, unassigned) [Example 74], for which the IC50 was less than 3 nM.

For the compound `Cc1ccc(C(NC(=O)c2c(C)cccc2C)C23CCC(CC2)N3C)o1` (single isomer, unassigned) [Example 87], the IC50 was 14 nM.

`CCN1C2CCC1(C(NC(=O)c1ccnc(C(F)(F)F)c1F)c1ccccc1)CC2` (stereo not shown) [Example 52]: the IC50 is 297 nM.

With `CCN1C2CCC1(C(NC(=O)c1cccnc1SC)c1ccccc1)CC2` (stereo not shown) [Example 51], the IC50 was found to be 107 nM.

For the compound `Cc1ccccc1C(=O)NC(c1ccccc1)C12CCC(CC1)N2C` (single isomer, unassigned) [Example 59], the IC50 came out at 38 nM.

As for `Cc1cc(C(NC(=O)c2c(C)cccc2C)C23CCC(CC2)N3C)ccn1` (single isomer, unassigned) [Example 85], the IC50 was found to be 23 nM.

As for `Cc1cccc(C)c1C(=O)N[C@H](c1ccc(F)cc1)C12CCC(CC1)N2` [Example 30], the 50% inhibitory concentration (IC50) was 93 nM.

Take `CC(=O)NCCN1C2CCC1([C@H](NC(=O)c1c(C)cccc1C)c1ccccc1)CC2` [Example 42]: the IC50 turned out to be 6 nM.

Turning to `CCc1ccccc1C(=O)N[C@H](c1ccccc1)C12CCC(CC1)N2CCOC` [Example 95], the IC50 was 68 nM.

With `Cc1cc(F)ccc1C(=O)NC(c1ccccc1)C12CCC(CC1)N2C` (single isomer, unassigned) [Example 62], the IC50 was 48 nM.

Take `CSc1ncccc1C(=O)NC(c1ccccc1)C12CCC(CC1)N2C(C)C` (stereo not shown) [Example 48]: the IC50 amounted to 23 nM.

With `Cc1cccc(C)c1C(=O)NC(c1ccc(O)cc1)C12CCC(CC1)N2C` (stereo not shown) [Example 99], the IC50 amounted to 6 nM.

Regarding `CN1C2CCC1(C(NC(=O)c1cccc(C(F)(F)F)c1Cl)c1ccccc1)CC2` (stereo not shown) [Example 20], the IC50 came to 26 nM.

For the compound `Cc1cccc(C)c1C(=O)NC(c1ccc(F)cc1)C12CCC(CC1)N2C` (single isomer, unassigned) [Example 47], the IC50 stood at 2 nM.

Take `Cc1cccc(C)c1C(=O)NC(c1cccc(F)c1)C12CCC(CC1)N2` (stereo not shown) [Example 35]: the IC50 came to 18 nM.

Regarding `Cc1cccc(Cl)c1C(=O)NC(c1ccccc1)C12CCC(CC1)N2C` (stereo not shown) [Example 67], the IC50 came to 6 nM.

Regarding `Cc1cccc(C)c1C(=O)NC(c1cccc(F)c1)C12CCC(CC1)N2` (single isomer, unassigned) [Example 75], the IC50 is 7 nM.
